Where two headings read alike, the source gives them in different places.
Key:
[1] = molecular target: SARS-CoV-2 NSP3 macrodomain (Mac1), P43 crystal form (Severe acute respiratory syndrome coronavirus 2, UniProt P0DTD1); type: binding; conditions: for PanDDA run, TFA/DMSO background map: 1-BDC / PanDDA run, TFA/DMSO background map: Hit: crystal soak 10 mM; for Isomers modeled: stereoisomer(s) of ligand modeled in Mac1 crystal structure
[2] = molecular target: SARS-CoV-2 NSP3 macrodomain (Mac1) (Severe acute respiratory syndrome coronavirus 2, UniProt P0DTD1); test: biochemical; type: binding
[3] = ligand modeling in Mac1 crystal soak
[4] = Single dose, concentration 200 μM, read-out: Average % competition
[5] = preliminary screen, compound at 200 μM, mean of 3-4 technical replicates, read-out: % competition in HTRF assay
[6] = SARS CoV-2 macrodomain HTRF assay
[7] = SARS CoV-2 macrodomain HTRF assay, dose-response, read-out: IC50
[8] = SARS CoV-2 macrodomain HTRF assay, dose-response, read-out: Ki
[9] = Single dose, concentration 200 μM, read-out: SARS CoV-2 macrodomain HTRF assay: Average % competition
[10] = from SARS CoV-2 macrodomain HTRF assay

Row | Structure (SMILES) | PanDDA run, TFA/DMSO background map: 1-BDC [1] | PanDDA run, TFA/DMSO background map: Hit [1] | Number of isomers bound [1, 3] | inhibition at 200 µM [2, 4] | inhibition at 200 µM [2, 5] | further results
1 | OCC(Cc1c[nH]c2ccccc12)Nc1ncnc2[nH]ccc12 (centres unmarked) [AVI-3650] | 0.11 | TRUE | 2 | 71% | 71% | Isomers modeled [1]: R,S
2 | OCC(Nc1ncnc2[nH]ccc12)C1CC1 (centres unmarked) [AVI-3651] | 0.16 | TRUE | 1 |  |  | Ligand efficiency (binding enery per heavy atom) [2, 6]: 0.38; IC50 [2, 7]: 48 µM; Ki [2, 8]: 45 µM
3 | OC(c1ccccc1)C1CCCN1c1ncnc2[nH]ccc12 (centres unmarked) [AVI-3652] | 0.16 | TRUE | 1 |  | 35% | inhibition at 200 µM [2, 9]: 35%
4 | CC1CCN(c2ncnc3[nH]ccc23)C1CO (centres unmarked) [AVI-3655] | 0.18 | TRUE | 1 |  | 75% | inhibition at 200 µM [2, 9]: 75%
5 | CO[C@@H]1C[C@H](CO)N(c2ncnc3[nH]ccc23)C1 [AVI-3656] |  |  | 1 |  | 41% | inhibition at 200 µM [2, 9]: 41%
6 | Cn1cc(CC(CO)Nc2ncnc3[nH]ccc23)cn1 (centres unmarked) [AVI-3657] | 0.09 | TRUE | 1 | 24% | 24% | 
7 | OCC(CC1OCCO1)Nc1ncnc2[nH]ccc12 (centres unmarked) [AVI-3658] |  |  | 1 | 11% | 11% | 
8 | OCC(Nc1ncnc2[nH]ccc12)c1ccco1 (centres unmarked) [AVI-3659] | 0.08 | TRUE | 1 | 55% | 55% | 
9 | OCC(CC1CCCO1)Nc1ncnc2[nH]ccc12 (centres unmarked) [AVI-3660] | 0.17 | TRUE | 1 | 18% | 18% | 
10 | OC1CCN(c2ncnc3[nH]ccc23)C1 (centres unmarked) [AVI-3661] | 0.12 | TRUE |  |  | 11% | Number of isomers bound ([1]; ligand modeling in Mac1 crystal structure): 1; inhibition at 200 µM [2, 9]: 11%
11 | OCC(CC1CC1)Nc1ncnc2[nH]ccc12 (centres unmarked) [AVI-3662] | 0.09 | TRUE | 1 | 44% | 44% | 
12 | O[C@H]1CC[C@@H]2CCN(c3ncnc4[nH]ccc34)[C@@H]21 [AVI-3664] | 0.15 | TRUE | 1 |  |  | Isomers modeled [1]: SRS; IC50 ([2]; dose-response, read-out: SARS CoV-2 macrodomain HTRF assay: IC50): 28 µM; Ki ([2]; dose-response, read-out: SARS CoV-2 macrodomain HTRF assay: Ki): 26 µM; Ligand efficiency (binding enery per heavy atom) [2, 10]: 0.35
13 | OCC(CC1CCOC1)Nc1ncnc2[nH]ccc12 (centres unmarked) [AVI-3665] | 0.15 | TRUE | 1 | 11% | 11% | 
14 | CCC(O)[C@H]1CCCN1c1ncnc2[nH]ccc12 (some centres unmarked) [AVI-3666] |  |  | 1 |  |  | fold decrease in binding affinity compared to AVI-4062 [2]: ~ 4 fold; Ligand efficiency (binding enery per heavy atom) [2, 10]: 0.34
15 | CCC(Nc1ncnc2[nH]ccc12)C(C)(C)O (centres unmarked) [AVI-3667] | 0.07 | TRUE | 1 | 51% | 51% | 
16 | CC(c1ccccc1)C(CO)Nc1ncnc2[nH]ccc12 (centres unmarked) [AVI-3669] | 0.09 | TRUE | 1 |  |  | fold more potent / increased binding affinity than AVI-313 parent ([2]; HTRF IC50 compared with AVI-313): > 10 fold; Ligand efficiency (binding enery per heavy atom) [2, 6]: 0.33; Ki [2, 8]: 8.1 µM; Ligand efficiency ([2]; binding energy per heavy atom): 0.33; IC50 ([2]; read-out: HTRF IC50): 8.7 µM
17 | O=C(O)C(F)(F)F.OCC1(Nc2ncnc3[nH]ccc23)CCC1 [AVI-3670] | 0.12 | TRUE | 1 |  |  | Isomers modeled [1]: achiral,achiral; Ligand efficiency (binding enery per heavy atom) [2, 6]: 0.38; IC50 [2, 7]: 39 µM; Ki [2, 8]: 36 µM
18 | CN(C)CC(CO)Nc1ncnc2[nH]ccc12 (centres unmarked) [AVI-3671] | 0.13 | TRUE | 1 | < 10% | < 10% | 
19 | OCC(Cc1nccs1)Nc1ncnc2[nH]ccc12 (centres unmarked) [AVI-3673] | 0.15 | TRUE | 1 | 38% | 38% | 
